Measured values from PubChem BioAssay (NCI).
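Grown in 96-well plates, cells were treated for 48 hours with each compound at five concentrations. Insufficient inhibition: endpoint recorded as highest concentration tested. TGI: concentration producing complete growth inhibition.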

Assays:
Test in all cases: NCI-60 cell line screen, 48 h
[1] = test system: IGROV1 ovarian
[2] = test system: NCI/ADR-RES ovarian
[3] = test system: MALME-3M melanoma
[4] = test system: SN12C renal
[5] = test system: MDA-MB-435
[6] = test system: MDA-N
[7] = test system: SNB-19 CNS
[8] = test system: A549 NSCLC
[9] = test system: PC-3 prostate
[10] = test system: CAKI-1 renal
[11] = test system: LOX IMVI melanoma
[12] = test system: BT-549 breast
[13] = test system: OVCAR-4 ovarian
[14] = test system: A498 renal
[15] = test system: KM12 colon
[16] = test system: UO-31 renal
[17] = test system: HOP-62 NSCLC
[18] = test system: SK-MEL-2 melanoma
[19] = test system: NCI-H460 lung
[20] = test system: OVCAR-3 ovarian
[21] = test system: DU-145 prostate
[22] = test system: SK-MEL-28 melanoma
[23] = test system: OVCAR-8 ovarian
[24] = test system: RPMI-8226 leukemia
[25] = test system: M14 melanoma
[26] = test system: K-562 leukemia
[27] = test system: UACC-257 melanoma
[28] = test system: OVCAR-5 ovarian
[29] = test system: NCI-H522 lung
[30] = test system: ACHN renal
[31] = test system: SR leukemia
[32] = test system: MDA-MB-231 breast
[33] = test system: HOP-92 NSCLC
[34] = test system: EKVX NSCLC
[35] = test system: MOLT-4 leukemia
[36] = test system: HT29 colon
[37] = test system: SW-620 colon
[38] = test system: NCI-H23 lung
[39] = test system: COLO 205 colon
[40] = test system: CCRF-CEM leukemia
[41] = test system: HCC-2998 colon
[42] = test system: TK-10 renal
[43] = test system: U251 CNS
[44] = test system: SK-MEL-5 melanoma
[45] = test system: MCF7 breast
[46] = test system: UACC-62 melanoma
[47] = test system: HCT-15 colon
[48] = test system: SF-539 CNS
[49] = test system: SF-268 CNS

O[C@@]12Cc3c([nH]c4ccccc34)[C@@H]3Oc4cccc5c4[C@@]31CCN(CC1CC1)[C@@H]2C5
TGI [1]: 45.4 µM
TGI [2]: 51.2 µM
TGI [3]: 33.9 µM
TGI [4]: 37 µM
TGI [5]: 29.2 µM
TGI [6]: 33.9 µM
TGI [7]: 50.9 µM
TGI [8]: 43.5 µM
TGI [9]: 30.7 µM
TGI [10]: 34.2 µM
TGI [11]: 32.9 µM
TGI [12]: 35.3 µM
TGI [13]: 41.3 µM
TGI [14]: 40.5 µM
TGI [15]: 54 µM
TGI [16]: 32.9 µM
TGI [17]: 46.6 µM
TGI [18]: 41.5 µM
TGI [19]: 60.9 µM
TGI [20]: 36.8 µM
TGI [21]: 45.2 µM
TGI [22]: 38.3 µM
TGI [23]: 29 µM
TGI [24]: 41.2 µM
TGI [25]: 39.4 µM
TGI [26]: 55.4 µM
TGI [27]: 42 µM
TGI [28]: 49.4 µM
TGI [29]: 38 µM
TGI [30]: 34.8 µM
TGI [31]: > 100 µM
TGI [32]: 40.4 µM
TGI [33]: 25.6 µM
TGI [34]: 47.6 µM
TGI [35]: 52.7 µM
TGI [36]: 29.8 µM
TGI [37]: 25.7 µM
TGI [38]: 55.6 µM
TGI [39]: 49.8 µM
TGI [40]: 29.9 µM
TGI [41]: 31.9 µM
TGI [42]: 33.7 µM
TGI [43]: 54 µM
TGI [44]: 40.7 µM
TGI [45]: 31.3 µM
TGI [46]: 32.3 µM
TGI [47]: 32.6 µM
TGI [48]: 36.3 µM
TGI [49]: 34 µM
